# From patent US20250170111A1, “PYRIDINE BASED CHALCONE ANALOGS AS THERAPEUTIC AGENTS AND USE THEREOF” (QATAR UNIVERSITY, priority 2023, published 2025)
# Where two headings read alike, the source gives them in different places.
# Tests used:
# [1] = system: E-cadherin; test: Western blot of EMT-related biomarkers in DU145; conditions: DU145 cells
# [2] = system: PC3 and DU145; test: Wound healing assay, PC3 and DU145; conditions: both cell lines; significant from 5 μM in PC3
# [3] = system: DU145; test: Annexin V / 7-AAD apoptosis assay, DU145; format: cell-based, human; conditions: 48 hours
# Experimental: (§1) Cellular apoptosis was assessed by PE Annexin V apoptosis Detection Kit (BDPharmingen, USA) as per the manufacturer's protocol. Briefly, cells were seeded in 100 mm Petri dishes at a density of 1.5 million cells/dish and incubated overnight. […] Adherent and floating cells were then harvested by trypsin, washed twice by PBS, resuspended in binding buffer and stained with Phycoerythrin (PE) conjugated Annexin-V, 7-AAD or both stains for 15 minutes. After staining, samples were analyzed by BD FACSAria™ II Flow Cytometer and FlowJo software. First, the cell population, excluding debris, was gated with forward scatter (FSC-A) and side scatter (SSC-A). Then, doublets were excluded using FSC-height and FSC-width plots. […] Quad Gates were used to calculate the percentage of viable cells (annexin V low, 7-AAD low), early pro-apoptotic cells (annexin V high, 7-AAD low) and late apoptosis/dead cells (annexin V high, 7-AAD high).
# [4] = system: PC3 and DU145; test: Soft agar colony formation assay, PC3 and DU145 (stated for both); format: cell-based, human; conditions: 5 and 10 μM, 14 days, both cell lines
# Experimental: (§2) Anchorage-independent growth, a characteristic of transformed cells that correlate with in vivo tumorigenic potential, was assessed by soft agar assay. First, a 2% noble agar (Sigma-Aldrich) stock solution was prepared in deionized and autoclaved water. […] After 14 days, the average number of colonies in each well was counted manually under the microscope and confirmed by ImageJ; only colonies with an area larger than […] were counted to avoid the inclusion of non-proliferating dead cells. Besides, the size of colonies in each treatment condition was measured by ImageJ from at least six random fields per well.
# [5] = system: PC3; test: Annexin V / 7-AAD apoptosis assay, PC3; format: cell-based, human; conditions: 48 hours
# Experimental: as §1
# [6] = system: DU145; test: Cell cycle analysis (PI flow cytometry), DU145; format: cell-based, human; conditions: DU145, 48 hours; not statistically significant (P>0.05)
# Experimental: Cells were seeded in 100 mm Petri dishes at a density of 1.5 million cells/dish and incubated in RPMI supplemented with 10% FBS overnight at 37° C. Complete culture media was then removed, and cells were starved in serum serum-free for 16 hours to synchronize cells at the G0/G1 phase of the cell cycle. Subsequently, cells were treated with the compounds 13, 15, and 16 or docetaxel for 48 hours. After treatment, floating and adherent cells were collected, washed with ice-cold PBS and centrifuged at 500 g for 10 minutes at 4° C. Next, cells were fixed with ice-cold 70% ethanol added drop wisely while vertexing and stored at −20° C. for at least 24 hours. On the day of analysis, cells were pelleted (centrifuged at 800 g for 10 minutes at 4° C.), washed twice with ice-cold PBS and counted. Around one million cells of each sample were resuspended in 500 μl of FxCycle PI/RNase Staining Solution® (Thermo Fisher Scientific, USA) supplemented with 200 μg/ml RNase and incubated for 50 minutes at 37° C. in a shaking water bath, protected from light. Following incubation, cells were immediately analyzed by BD FACSAria™ II Flow Cytometer, at least 50,000 events were acquired for each sample. The proportion of cells in each cell cycle phase: […]
# [7] = system: JNK1/2/3, ERK1/2, Akt; test: Western blot of JNK, ERK and AKT-related biomarkers in PC3; conditions: PC3 cell line
# [8] = system: CAM of chicken embryos; test: Chorioallantoic membrane (CAM) angiogenesis assay; format: in vivo; conditions: in ovo, 48 hours post-treatment, vs control
# Experimental: Fertilized white leghorn chicken eggs were obtained from Arab […] for Poultry Production, Doha, Qatar. Eggs were incubated in a rotary humidified MultiQuip Incubator at 37° C. with 60% humidity. Ethics approval was obtained from Institutional Animal Care & Use Committee and Institutional Bio-safety committee at Qatar University. […] Briefly, eggshells were disinfected with ethanol and a small opening was made in the shell over the air sac. Next, 200 μl of 1×PBS was added and the shell membrane was carefully removed. […] Subsequently, opened windows were sealed and the eggs were returned to a stationary incubator (FIG. 11). The effect of compounds on angiogenesis was monitored for 48 hours post-treatment and microscopic images of exposed (under coverslip) and unexposed area in each embryo were captured at equivalent magnification. Images were then analyzed using AngioTool software using the following parameters: vessel diameter thresholds at, vessel thickness at 7 and 10, removed small particles at 60, and filled holes at 183. The difference in blood vessel formation between treated and untreated embryos was assessed based on average vessel length, vessel percentage area and the total number of blood vessel junctions. […]
# [9] = system: PC3; test: Alamar Blue cell viability assay, PC3
# [10] = system: PC3; test: Soft agar colony formation assay, PC3; format: cell-based, human; set-up: average size of detected colonies, PC3: unit not given here; conditions: 10 μM
# Experimental: as §2
# [11] = system: DU145; test: Alamar Blue cell viability assay, DU145; conditions: Homo sapiens, DU-145, 48 h
# [12] = system: DU145; test: Soft agar colony formation assay, DU145; format: cell-based, human; set-up: average size of detected colonies, DU145: unit not given here; conditions: 10 μM
# Experimental: as §2
# [13] = system: Bax, Bcl-2; test: Western blot of apoptosis-related proteins in PC3 and DU145; conditions: PC3 and DU145, 48 hours of treatment
# [14] = system: PC3 and DU145; test: Morphological examination, PC3 and DU145; format: cell-based, human; conditions: 5 μM
# Experimental: Cells were seeded in 6 wells plate at a density of 150,000-200,000 cells/well and were incubated overnight. Then, cells were treated with the synthesized compounds at 5-10 μM concentration for 48 hours. Morphological changes were monitored using a DMi8 inverted microscope (Leica, Germany) and images were captured with a Leica MC170 HD camera.
# The induction of apoptosis in cancer cells has been widely considered an important criterion in developing anticancer drugs. To confirm whether the synthesized compounds could reduce cell viability and induce apoptosis in PC3 and DU145, prostate cancer cells were treated with compounds 1-16 at 10 μM concentrations for 48 hours. Cells were examined for the formation of apoptotic bodies or death by phase-contrast microscopy (FIGS. 21 and 22). More importantly, cells were monitored for characteristic changes in cell morphology as they can provide insight into cell differentiation, invasiveness, survival, and genetic alterations.
# [15] = system: PC3 and DU145; test: Alamar Blue cell viability, AR-negative PCa cell lines (stated for both); conditions: Homo sapiens, DU-145, read-out: IC50 against PC3 and DU145 cell lines
# [16] = system: primary human dental bulb cells (ND); test: Alamar Blue cell viability, normal primary dental cells; conditions: 48 hours, Mean ± SEM
# [17] = 14 days, in comparison to control
smiles,measurement,setting,value
"COc1cccc(C(=O)/C=C/c2cccc(-c3ccsc3)n2)c1 [Compound 16, (E)-1-(3-methoxyphenyl)-3-(6-(thiophen-3-yl)pyridin-2-yl) prop-2-en-1-one]",expression of E-cadherin,[1],significantly upregulate the expression of E-cadherin
same,wound closure,[2],dose-dependent reduction in wound closure
same,induction of apoptosis in DU145,[3],47.8%
same,colony formation in soft agar (number and size),[4],significant reduction in both the total number of colonies and average colony size
same,induction of apoptosis in PC3,[5],34.7%
same,effect on cell cycle distribution,[6],slight accumulation in G2/M and sub G1 phases
same,"expression of JNK1/2/3, ERK1/2, Akt and phosphorylated forms",[7],significantly reduced the expression of JNK1/2/3 and phosphorylated ERK1/2
same,effect on angiogenesis of the CAM,[8],"significant reduction in average vessel length, a total number of junctions, and vessel area"
same,reduction in cell viability of PC3,[9]; 2.5 μM,47.5%
same,IC50,"[9]; read-out: PC3 IC50, 48 hours, Mean ± SEM of three independent experiments",4.32 ± 0.37 µM
same,"reduction in number of colonies, PC3",[10]; [17],82.8%
same,"average size of detected colonies, PC3",[10]; control 583.2,20.0
same,IC50,[11]; read-out: DU145 IC50,5.2 ± 0.46 µM
same,IC50,[11]; read-out: IC50 against DU145,5.2 µM
same,cytotoxicity at 10 µM,[11]; read-out: reduction in cell viability of DU145,81%
same,"reduction in number of colonies, DU145",[12]; [17],84.9%
same,"average size of detected colonies, DU145",[12]; control 196.0,18.7
same,Bax/Bcl-2 expression,[13],significant increase in Bax/Bcl-2 ratio
same,effect on cell morphology,[14],"increased cell detachment, the formation of apoptotic bodies, and cell shrinkage"
same,IC50,[15],4.32 to 6.47 µM
same,ND LD50,[16],24.67 ± 1.03 µM
